Laboratory results from PubChem BioAssay (NCI).
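The concentration for 50% growth inhibition is given as GI50. The concentration for full growth arrest is given as TGI.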

Columns and labels:
Assay in all cases: DTP human tumour cell line panel, 384-well format
786-0 renal = system: 786-0 renal
A498 renal = system: A498 renal
A549 NSCLC = system: A549 NSCLC
ACHN renal = system: ACHN renal
BT-549 breast = system: BT-549 breast
CAKI-1 renal = system: CAKI-1 renal
CCRF-CEM leukemia = system: CCRF-CEM leukemia
COLO 205 colon = system: COLO 205 colon
DU-145 prostate = system: DU-145 prostate
EKVX NSCLC = system: EKVX NSCLC
HCC-2998 colon = system: HCC-2998 colon
HCT-116 colon = system: HCT-116 colon
HCT-15 colon = system: HCT-15 colon
HL-60(TB) leukemia = system: HL-60(TB) leukemia
HOP-62 NSCLC = system: HOP-62 NSCLC
HOP-92 NSCLC = system: HOP-92 NSCLC
HS 578T breast = system: HS 578T breast
HT29 colon = system: HT29 colon
IGROV1 ovarian = system: IGROV1 ovarian
K-562 leukemia = system: K-562 leukemia
KM12 colon = system: KM12 colon
LOX IMVI melanoma = system: LOX IMVI melanoma
M14 melanoma = system: M14 melanoma
MALME-3M melanoma = system: MALME-3M melanoma
MCF7 breast = system: MCF7 breast
MDA-MB-231 breast = system: MDA-MB-231 breast
MDA-MB-435 melanoma = system: MDA-MB-435 melanoma
MDA-MB-468 breast = system: MDA-MB-468 breast
MOLT-4 leukemia = system: MOLT-4 leukemia
NCI-H226 lung = system: NCI-H226 lung
NCI-H23 lung = system: NCI-H23 lung
NCI-H322M lung = system: NCI-H322M lung
NCI-H460 NSCLC = system: NCI-H460 NSCLC
NCI-H522 lung = system: NCI-H522 lung
NCI/ADR-RES ovarian = system: NCI/ADR-RES ovarian
OVCAR-3 ovarian = system: OVCAR-3 ovarian
OVCAR-4 ovarian = system: OVCAR-4 ovarian
OVCAR-5 ovarian = system: OVCAR-5 ovarian
PC-3 prostate = system: PC-3 prostate
RPMI-8226 leukemia = system: RPMI-8226 leukemia
RXF 393 renal = system: RXF 393 renal
SF-268 CNS = system: SF-268 CNS
SF-295 CNS = system: SF-295 CNS
SF-539 CNS = system: SF-539 CNS
SK-MEL-2 melanoma = system: SK-MEL-2 melanoma
SK-MEL-28 melanoma = system: SK-MEL-28 melanoma
SK-MEL-5 melanoma = system: SK-MEL-5 melanoma
SK-OV-3 ovarian = system: SK-OV-3 ovarian
SN12C renal = system: SN12C renal
SNB-19 CNS = system: SNB-19 CNS
SNB-75 CNS = system: SNB-75 CNS
SR leukemia = system: SR leukemia
SW-620 colon = system: SW-620 colon
T-47D breast = system: T-47D breast
TK-10 renal = system: TK-10 renal
U251 glioblastoma = system: U251 glioblastoma
UACC-257 melanoma = system: UACC-257 melanoma
UACC-62 melanoma = system: UACC-62 melanoma
UO-31 renal = system: UO-31 renal

Work on O=[N+]([O-])c1ccc(Nc2ccccc2-c2ccccc2)c2nonc12 yielded a GI50 ([…]-0 renal) of 12.6 µM, a TGI (786-0 renal) of 25.6 µM and a GI50 (A498 renal) of 14.9 µM. For the same compound, the TGI (A498 renal) was 32.3 µM, the GI50 (A549 NSCLC) was 14.1 µM and the TGI (A549 NSCLC) was 30.9 µM. It also gave a GI50 (ACHN renal) of 15.6 µM, a TGI (ACHN renal) of 34.2 µM and a GI50 (BT-549 breast) of 17.1 µM. The TGI (BT-549 breast) was 32.2 µM, the GI50 (CAKI-1 renal) was 14.5 µM and the TGI (CAKI-1 renal) was 33.3 µM. It also gave a GI50 (CCRF-CEM leukemia) of 11.3 µM, a TGI (CCRF-CEM leukemia) of 23.6 µM and a GI50 (COLO 205 colon) of 17.5 µM. The TGI (COLO 205 colon) was 42.3 µM, the GI50 (DU-145 prostate) was 16.3 µM and the TGI (DU-145 prostate) was 51.2 µM. For the same compound, the GI50 (EKVX NSCLC) was 13.2 µM, the TGI (EKVX NSCLC) was 30 µM and the GI50 (HCC-2998 colon) was 22.3 µM. For the same compound, the TGI (HCC-2998 colon) was 40.8 µM, the GI50 (HCT-116 colon) was 13.9 µM and the TGI (HCT-116 colon) was 28.2 µM. It also gave a GI50 (HCT-15 colon) of 14.3 µM, a TGI (HCT-15 colon) of 29.2 µM and a GI50 (HL-60(TB) leukemia) of 13.3 µM. For the same compound, the TGI (HL-60(TB) leukemia) was 26.5 µM, the GI50 (HOP-62 NSCLC) was 13.7 µM and the TGI (HOP-62 NSCLC) was 28.4 µM. It also gave a GI50 (HOP-92 NSCLC) of 10.5 µM, a TGI (HOP-92 NSCLC) of 24.8 µM and a GI50 (HS 578T breast) of 10.4 µM. For the same compound, the TGI (HS 578T breast) was 23.8 µM, the GI50 (HT29 colon) was 15.9 µM and the TGI (HT29 colon) was 33.8 µM. It also gave a GI50 (IGROV1 ovarian) of 16.1 µM, a TGI (IGROV1 ovarian) of 36.2 µM and a GI50 (K-562 leukemia) of 11.5 µM. For the same compound, the TGI (K-562 leukemia) was 28.6 µM, the GI50 (KM12 colon) was 16.4 µM and the TGI (KM12 colon) was 33 µM. The GI50 (LOX IMVI melanoma) was 15.9 µM, the TGI (LOX IMVI melanoma) was 29.7 µM and the GI50 (M14 melanoma) was 13.9 µM. It also gave a TGI (M14 melanoma) of 30.9 µM, a GI50 (MALME-3M melanoma) of 16.8 µM and a TGI (MALME-3M melanoma) of 36.3 µM. For the same compound, the GI50 (MCF7 breast) was 13.8 µM, the TGI (MCF7 breast) was 31.3 µM and the GI50 (MDA-MB-231 breast) was 16.2 µM. The TGI (MDA-MB-231 breast) was 35.1 µM, the GI50 (MDA-MB-435 melanoma) was 10.7 µM and the TGI (MDA-MB-435 melanoma) was 30.1 µM. It also gave a GI50 (MDA-MB-468 breast) of 3.96 µM, a TGI (MDA-MB-468 breast) of 15.4 µM and a GI50 (MOLT-4 leukemia) of 12.8 µM. The TGI (MOLT-4 leukemia) was 25.6 µM, the GI50 (NCI-H226 lung) was 11.2 µM and the TGI (NCI-H226 lung) was 23.6 µM. It also gave a GI50 (NCI-H23 lung) of 5.93 µM, a TGI (NCI-H23 lung) of 20.5 µM and a GI50 (NCI-H322M lung) of 17.5 µM. The TGI (NCI-H322M lung) was 37.3 µM, the GI50 (NCI-H460 NSCLC) was 11 µM and the TGI (NCI-H460 NSCLC) was 24.1 µM. The GI50 (NCI-H522 lung) was 9.27 µM, the TGI (NCI-H522 lung) was 22.9 µM and the GI50 (NCI/ADR-RES ovarian) was 12.7 µM. For the same compound, the TGI (NCI/ADR-RES ovarian) was 27.9 µM, the GI50 (OVCAR-3 ovarian) was 11.9 µM and the TGI (OVCAR-3 ovarian) was 25.1 µM. It also gave a GI50 (OVCAR-4 ovarian) of 7.68 µM, a TGI (OVCAR-4 ovarian) of 28.4 µM and a GI50 (OVCAR-5 ovarian) of 15.8 µM. The TGI (OVCAR-5 ovarian) was 36.9 µM, the GI50 (PC-3 prostate) was 12.8 µM and the TGI (PC-3 prostate) was 27 µM. For the same compound, the GI50 (RPMI-8226 leukemia) was 7.48 µM, the TGI (RPMI-8226 leukemia) was 20 µM and the GI50 (RXF 393 renal) was 17.4 µM. It also gave a TGI (RXF 393 renal) of 32.2 µM, a GI50 (SF-268 CNS) of 15.6 µM and a TGI (SF-268 CNS) of 34.1 µM. It also gave a GI50 (SF-295 CNS) of 10.1 µM, a TGI (SF-295 CNS) of 22.9 µM and a GI50 (SF-539 CNS) of 17.4 µM. The TGI (SF-539 CNS) was 33.2 µM, the GI50 (SK-MEL-2 melanoma) was 23 µM and the TGI (SK-MEL-2 melanoma) was 37.9 µM. It also gave a GI50 (SK-MEL-28 melanoma) of 13.2 µM, a TGI (SK-MEL-28 melanoma) of 29.7 µM and a GI50 (SK-MEL-5 melanoma) of 12.9 µM. The TGI (SK-MEL-5 melanoma) was 25.7 µM, the GI50 (SK-OV-3 ovarian) was 19.9 µM and the TGI (SK-OV-3 ovarian) was 40.4 µM. The GI50 (SN12C renal) was 11.9 µM, the TGI (SN12C renal) was 28.6 µM and the GI50 (SNB-19 CNS) was 12.9 µM. For the same compound, the TGI (SNB-19 CNS) was 35.1 µM, the GI50 (SNB-75 CNS) was 14.1 µM and the TGI (SNB-75 CNS) was 34 µM. It also gave a GI50 (SR leukemia) of 19 µM, a TGI (SR leukemia) of 33.3 µM and a GI50 (SW-620 colon) of 16.4 µM. It also gave a TGI (SW-620 colon) of 35.7 µM, a GI50 (T-47D breast) of 7.99 µM and a TGI (T-47D breast) of 30.9 µM. For the same compound, the GI50 (TK-10 renal) was 14 µM, the TGI (TK-10 renal) was 34.8 µM and the GI50 (U251 glioblastoma) was 11.2 µM. The TGI (U251 glioblastoma) was 25.7 µM, the GI50 (UACC-257 melanoma) was 16.5 µM and the TGI (UACC-257 melanoma) was 36.1 µM. It also gave a GI50 (UACC-62 melanoma) of 13.6 µM, a TGI (UACC-62 melanoma) of 28.3 µM and a GI50 (UO-31 renal) of 13 µM. The TGI (UO-31 renal) was 27.5 µM.
